Test results as given in patent US8337792B2, “Aromatic imine compounds for use as sulfide scavengers” (priority 2007, dated 2012).

Key:
[1] = Comparison of features, safety and hazard (Table 3)
Description: (§1) An overall comparison of the features of the present aromatic imine compounds and conventional compositions is shown in Table 3.

[2] = Comparison of features, performance and handling (Table 3)
Description: as §1

[3] = Solubility in water, oil, fuel and solvents; format: physicochemical
[4] = Comparison with conventional treatments against H2S dissolved in water (Table 2); settings: 1,000 ppm H2S in water; for Lead acetate paper test, Head space / Lead acetate paper test, Liquid: paper colour
Description: as §1

| SMILES | Carcinogenicity [1] | Mutagenicity [1] | RCRA Hazardous Waste [1] | Safe to use [1] | Sensitizing chemical [1] | Toxicity [1] | Formaldehyde ([1]; formaldehyde in the product) | Deodorizes [2] | Stable [2] | Strong bonding to H2S [2] | Reactivity* ([2]; 1 is highest) | Reactive at ambient temperature ([2]; ambient temperature) | Oil Solubility [3] | Residual H2S, I2 Titration [4] | Residual H2S, Outside Lab [4] | Lead acetate paper test, Head space [4] | Lead acetate paper test, Liquid [4] |
| --- | --- | --- | --- | --- | --- | --- | --- | --- | --- | --- | --- | --- | --- | --- | --- | --- | --- |
| O=CC=O [Glyoxal] | yes | yes | yes | some | yes | no | 100 ppm | no | no | no | 1 | yes | no | 350 ppm | 240 ppm | brown/ | yellow/ |
| OCCN1CN(CCO)CN(CCO)C1 [Triazine] |  |  |  |  |  |  |  |  |  |  |  |  |  | 660 ppm | 728 ppm | yellow/ | brown |
